Test results taken from patent US9133417B2, “Liquid cleaning and disinfecting compositions comprising an assymetrically branched amine oxide” (THE PROCTER & GAMBLE COMPANY, priority 2012, dated 2015).

Columns and labels:
Conditions in all cases: Shake Flask, 1 hour contact (T1h vs T0), incubation 32 °C 24 hours; test concentration not given
[1] = test system: Pseudomonas Aeruginosa (PA) CIP 82.113
Procedure: (§1) The antibacterial efficacy was tested following the below Shake Flask protocol:
(§2) • Microbial strains: Staphylococcus aureus (SA) CIP 4.83, Escherichia Coli (EC) CIP 53.126, Pseudomonas Aeruginosa (PA) CIP 82.113 • Culture media: TSA medium—Neutralizing medium (Dey Engley Broth)—Buffered Peptoned water (BPW-F)—Shake flask bottles—Physiological water • Incubator Shake Flask Protocol: ASTM E2149 Shake Flask Method • Inoculum counting: • For each strain, prepare an inoculum at 0.5 Mc Farland (McF). Dilute 1 ml of the inoculum with 9 ml of physiological water. Select 1 ml of the resulting dilution and dilute again with 9 ml of physiological water. Execute 5 dilution steps accordingly so that a 10^−5 dilution is obtained. • Recover 100 microliter of the 10^−5 dilution and inoculate 2 petri dishes. • Add 20 ml of TSA medium. • Incubate at 32+/−0.5° C. during 24 hours • Negative control: • Put 5 ml of SA, EC or PA inoculums into a shake flask. Add 45 ml of pure BPW-F solution. • Dilute twice in neutralizing medium: Recover 1 ml of the pure solution and add 9 ml of the neutralizing medium (=10^−1 and 10^−2 dilution). • Wait 5 minutes and put 100 microliter of the pure solution and the 10^−2 dilution into 2 petri dishes, add 20 ml of TSA medium (T0). • Do the same operation after 1 hour (T1h). • Incubate at 32+/−0:5° C. during 24 hours • Sample testing: • Prepare a solution at a specified concentration (see data tables for actual concentrations as 100% active—final volume 50 ml). For example, for a 50% (V/V), dilute 25 ml of product with 20 ml of BPW-F and 5 ml of the inoculums (SA, EC or PA) at 0.5 McF. • Dilute twice in neutralizing medium: Recover 1 ml of the pure solution and add 9 ml of the neutralizing medium (=10^−1 and 10^−2 dilution). • Wait 5 minutes and put 100 microliter of the pure solution and the 10^−2 dilution into 2 petri dishes, add 20 ml of TSA medium (T0). • Do the same operation after 1 hour (T1h). • Incubate at 32+/−0.5° C. during 24 hours • Calculation of log reduction: • The log reduction is calculated as log (T0/T1h)

[2] = test system: Staphylococcus aureus (SA) CIP 4.83
Procedure: as §1, §2

[3] = test system: Escherichia Coli (EC) CIP 53.126
Procedure: as §1, §2

Substance: asymmetrically branched C12-14 alkyl dimethyl amine oxide
- log reduction, log (T0/T1h), Ps Aeroginosa [1]: 3.98
- log reduction, log (T0/T1h), St. Aureus [2]: 4.06

Substance: linear C12-14 alkyl dimethyl amine oxide [reference compound]
- log reduction, log (T0/T1h), Ps Aeroginosa [1]: 2.10
- log reduction, log (T0/T1h), St. Aureus [2]: 0.73
- log reduction, log (T0/T1h), E. coli [3]: 0.41

Substance: symmetrically branched C12-14 alkyl dimethyl amine oxide
- log reduction, log (T0/T1h), Ps Aeroginosa [1]: 3.29
- log reduction, log (T0/T1h), E. coli [3]: 2.6
